Reference: US5686486A, “4-hydroxy-benzopyran-2-ones and 4-hydroxy-cycloalkyl[b]pyran-2-ones useful to treat retroviral infections” (priority 1995, dated 1997)

Legend:
[1] = molecular target: T1, HIV-1 protease (Human immunodeficiency virus type 1 group M subtype B, UniProt P04585); assay: biochemical; conditions: for inhibition at 0.37 µM: read-out: HIV-1 Protease % Inhib, dose 0.370 uM; for inhibition at 1.1 µM: read-out: HIV-1 Protease % Inhib, dose 1.100 uM; for inhibition at 3.3 µM: read-out: HIV-1 Protease % Inhib, dose 3.300 uM; for inhibition at 10 µM: read-out: HIV-1 Protease % Inhib, dose 10.000 uM; for inhibition at 30 µM: read-out: HIV-1 Protease % Inhib, dose 30.000 uM; for inhibition at 0.123 µM: read-out: HIV-1 Protease % Inhib, dose 0.123 uM
Method in brief: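 Biotinylated, FITC-labeled peptide substrate (20 μl of 0.2 μM) incubated with HIV-1 protease (10 μl of 0.1 μM) and compound in 0.1 M sodium acetate pH 5.5, 1.0 M NaCl, 0.05% NP-40, 1 h, room temperature, dark. Streptavidin beads then capture uncleaved substrate; filtered labeled product read by fluorescence, giving percent inhibition.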

[2] = molecular target: T1, HIV-1 protease; assay: biochemical; conditions: read-out: HIV-1 FITC KI
Method in brief: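 Ki from two-fold serial inhibitor dilutions (24–48 concentrations) with 40 nM HIV-1 protease stock and 200 μM substrate stock, 90 min at room temperature; stopped with avidin beads. Reference inhibitor run in parallel; Ki by nonlinear least-squares fit.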

O=c1oc2c(c(O)c1C(c1ccccc1)C1CC1)CCCCCC2CC1CCCOC1 (stereo not drawn) [Example 179, 3-(Cyclopropylphenylmethyl)-5,6,7,8,9,10-hexahydro-4-hydroxy-10-[(tetrahydro-2H-pyran-3-yl)methyl]-2H-cycloocta[b]pyran-2-one] was tested, and the inhibition at 0.37 µM [1] was 38.6%, the inhibition at 1.1 µM [1] was 71.6% and the inhibition at 3.3 µM [1] was 87.2%. For the same compound, the inhibition at 10 µM [1] was 93.7%, the inhibition at 30 µM [1] was 91.1% and the Ki [2] was 0.019 µM.

For O=c1oc2c(c(O)c1C(c1ccccc1)C1CC1)CCCCC2Cc1ccccc1 (stereo not drawn) [Example 182, 3-(Cyclopropylphenylmethyl)-6,7,8,9-tetrahydro-4-hydroxy-9-(phenylmethyl)-cyclohepta[b]pyran-2(5H)-one], the inhibition at 0.37 µM [1] was 22.3%, the inhibition at 1.1 µM [1] was 51% and the inhibition at 3.3 µM [1] was 83.7%. The inhibition at 10 µM [1] was 99.2%, the inhibition at 30 µM [1] was 98.7% and the Ki [2] was 0.117 µM.

CC(C)CC1CCCCc2c1oc(=O)c(C(c1ccccc1)C1CC1)c2O (stereo not drawn) [Example 183, 3-(Cyclopropylphenylmethyl)-6,7,8,9-tetrahydro4-hydroxy-9-(2-methylpropyl)-cyclohepta[b]pyran-2(5H)-one] showed an inhibition at 0.123 µM [1] of 20.9%, an inhibition at 0.37 µM [1] of 56.5% and an inhibition at 1.1 µM [1] of 85.5%. For the same compound, the inhibition at 3.3 µM [1] was 97.3%, the inhibition at 10 µM [1] was 95.8% and the inhibition at 30 µM [1] was 89.7%. It also gave a Ki [2] of 0.013 µM.

Compound CC(C)CCC1CCCCc2c1oc(=O)c(C(c1ccccc1)C1CC1)c2O (stereo not drawn) [Example 184, 3-(Cyclopropylphenylmethyl)-6,7,8,9-tetrahydro4-hydroxy-9-(3-methylbutyl)-cyclohepta[b]pyran-2(5H)-one] has an inhibition at 0.37 µM [1] of 18%, an inhibition at 1.1 µM [1] of 60.7% and an inhibition at 3.3 µM [1] of 86%. For the same compound, the inhibition at 10 µM [1] was 96.5%, the inhibition at 30 µM [1] was 93.1% and the Ki [2] was 0.046 µM.

For CCC1CCCCc2c1oc(=O)c(C(c1ccccc1)C1CC1)c2O (stereo not drawn) [Example 185, 3-(Cyclopropylphenylmethyl)-9-ethyl-6,7,8,9-tetrahydro-4-hydroxy-cyclohepta[b]pyran-2(5H)-one], the inhibition at 0.123 µM [1] was 18.7%, the inhibition at 0.37 µM [1] was 40.3% and the inhibition at 1.1 µM [1] was 71.5%. For the same compound, the inhibition at 3.3 µM [1] was 92.6%, the inhibition at 10 µM [1] was 97.6% and the inhibition at 30 µM [1] was 91.8%. For the same compound, the Ki [2] was 0.022 µM.

CCCC1CCCCc2c1oc(=O)c(C(c1ccccc1)C1CC1)c2O (stereo not drawn) [Example 188, 3-(Cyclopropylphenylmethyl)-6,7,8,9-tetrahydro-4-hydroxy-9-propyl-cyclohepta[b]pyran-2(5H)-one] was tested, and the inhibition at 0.123 µM [1] was 27.3%, the inhibition at 0.37 µM [1] was 57% and the inhibition at 1.1 µM [1] was 82.2%. For the same compound, the inhibition at 3.3 µM [1] was 88.4%, the inhibition at 10 µM [1] was 88.3% and the inhibition at 30 µM [1] was 84.5%. For the same compound, the Ki [2] was 0.026 µM.

In the case of O=c1oc2c(c(O)c1C(c1ccccc1)C1CC1)CCCCC2CC1CCCO1 (stereo not drawn) [Example 189, 3-(Cyclopropylphenylmethyl)-6,7,8,9-tetrahydro4-hydroxy-9-[(tetrahydro-2-furanyl)methyl]-cyclohepta[b]pyran-2(5H)-one], the inhibition at 0.123 µM [1] is reported as 15.7%, the inhibition at 0.37 µM [1] is reported as 37.6% and the inhibition at 1.1 µM [1] is reported as 69.8%. The inhibition at 3.3 µM [1] was 89.3%, the inhibition at 10 µM [1] was 98.1% and the inhibition at 30 µM [1] was 99.3%. It also gave a Ki [2] of 0.036 µM.

For COCCC1CCCCc2c1oc(=O)c(C(c1ccccc1)C1CC1)c2O (stereo not drawn) [Example 194, 3-(Cyclopropylphenylmethyl)-6,7,8,9-tetrahydro4-hydroxy-9-(2-methoxyethyl)-cyclohepta[b]pyran-2(5H)-one], the “HIV-1 Protease % Inhib” value ([1]; dose 1.100 uM) was 81.89%, the “HIV-1 Protease % Inhib” value ([1]; dose 3.300 uM) was 102.84% and the “HIV-1 Protease % Inhib” value ([1]; dose 10.000 uM) was 108.17%. For the same compound, the “HIV-1 Protease % Inhib” value ([1]; dose 30.000 uM) was 107.45%, the inhibition at 0.37 µM [1] was 39.7% and the Ki [2] was 0.028 µM.

Compound O=c1oc2c(c(O)c1C(c1ccccc1)C1CC1)CCCCC2C(O)C1CC1 (stereo not drawn) [Example 195, 9-(Cyclopropylhydroxymethyl)-3-(cyclopropylphenylmethyl)-6,7,8,9-tetrahydro-4-hydroxy-cyclohepta[b]pyran-2(5H)-one] has an inhibition at 0.37 µM [1] of 23.5%, an inhibition at 1.1 µM [1] of 71.4% and an inhibition at 3.3 µM [1] of 90.8%. It also gave an inhibition at 10 µM [1] of 108%, an inhibition at 30 µM [1] of 117% and a Ki [2] of 0.022 µM.

In the case of CC(C)(C)OC(=O)NCCC(=O)Nc1cccc(C(c2c(O)c3c(oc2=O)CCCCCC3)C2CC2)c1 (stereo not drawn) [Example 196, Carbamic acid, [3-[[3-[cyclopropyl(5,6,7,8,9,10-hexahydro-4-hydroxy-2-oxo-2H-cycloocta[b]pyran-3-yl)methyl]phenyl]amino]-3-oxopropyl]-, 1,1-dimethylethyl ester], the inhibition at 0.123 µM [1] is reported as 68%, the inhibition at 0.37 µM [1] is reported as 81.2% and the inhibition at 1.1 µM [1] is reported as 91.8%. For the same compound, the inhibition at 3.3 µM [1] was 97.9%, the inhibition at 10 µM [1] was 105% and the inhibition at 30 µM [1] was 95.8%. It also gave a Ki [2] of 0.003 µM.

Work on O=C(CCn1ccc2ccccc21)Nc1cccc(C(c2c(O)c3c(oc2=O)CCCCCC3)C2CC2)c1 (stereo not drawn) [Example 197, 1H-Indole-1-propanamide, N-[3-[cyclopropyl(5,6,7,8,9,10-hexahydro-4-hydroxy-2-oxo-2H-cycloocta[b]pyran-3-yl)methyl]phenyl]-] yielded an inhibition at 0.123 µM [1] of 34%, an inhibition at 0.37 µM [1] of 65.6% and an inhibition at 1.1 µM [1] of 76.6%. It also gave an inhibition at 3.3 µM [1] of 88.7%, an inhibition at 10 µM [1] of 91.8% and an inhibition at 30 µM [1] of 89.6%. For the same compound, the Ki [2] was 0.0141 µM.

Cc1ccc(S(=O)(=O)n2cncc2C[C@H](NC(=O)OC(C)(C)C)C(=O)Nc2cccc(C(c3c(O)c4c(oc3=O)CCCCCC4)C3CC3)c2)cc1 (stereo partly drawn) [Example 199, Carbamic acid, [2-[[3-[cyclopropyl(5,6,7,8,9,10-hexahydro-4-hydroxy-2-oxo-2H-cycloocta[b]pyran-3-yl)methyl]phenyl]amino]-1-[[1-(S)-[(4-methylphenyl)sulfonyl]-1H-imidazol-5-yl]methyl]-2-oxoethyl]-, 1,1-dimethylethyl ester] gave an inhibition at 0.123 µM [1] of 56%, an inhibition at 0.37 µM [1] of 86.5% and an inhibition at 1.1 µM [1] of 97.6%. For the same compound, the inhibition at 3.3 µM [1] was 106%, the inhibition at 10 µM [1] was 114% and the inhibition at 30 µM [1] was 107%. The Ki [2] was 0.0104 µM.

In the case of CC(C)(C)OC(=O)NCC(=O)Nc1cccc(C(c2c(O)c3c(oc2=O)CCCCCC3)C2CC2)c1 (stereo not drawn) [Example 200, Carbamic acid, [2-[[3-[cyclopropyl(5,6,7,8,9,10-hexahydro-4-hydroxy-2-oxo-2H-cycloocta[b]pyran-3-yl)methyl]phenyl]amino]-2-oxyethyl]-, 1,1-dimethylethyl ester], the inhibition at 0.123 µM [1] is reported as 64.6%, the inhibition at 0.37 µM [1] is reported as 88.5% and the inhibition at 1.1 µM [1] is reported as 90.9%. For the same compound, the inhibition at 3.3 µM [1] was 103%, the inhibition at 10 µM [1] was 105% and the inhibition at 30 µM [1] was 99.1%. The Ki [2] was 0.0029 µM.

O=C(CCN1CCCCC1)Nc1cccc(C(c2c(O)c3c(oc2=O)CCCCCC3)C2CC2)c1 (stereo not drawn) [Example 205, 1-Piperidinepropanamide, N-[3-[cyclopropyl(5,6,7,8,9,10-hexahydro4-hydroxy-2-oxo-2H-cycloocta[b]pyran-3-yl)methyl]phenyl]-] gave an inhibition at 0.123 µM [1] of 12.6%, an inhibition at 0.37 µM [1] of 56.4% and an inhibition at 1.1 µM [1] of 76.6%. For the same compound, the inhibition at 3.3 µM [1] was 94.2%, the inhibition at 10 µM [1] was 109% and the inhibition at 30 µM [1] was 104%. For the same compound, the Ki [2] was 0.0261 µM.

For O=C(Cc1ccccc1)Nc1cccc(C(c2c(O)c3c(oc2=O)CCCCCC3)C2CC2)c1 (stereo not drawn) [Example 207, N-[3-[Cyclopropyl(5,6,7,8,9,10-hexahydro-4-hydroxy-2-oxo-2H-cycloocta[b]pyran-3-yl)methyl]phenyl]-benzacetamide], the inhibition at 0.123 µM [1] was 14%, the inhibition at 0.37 µM [1] was 44.1% and the inhibition at 1.1 µM [1] was 74%. It also gave an inhibition at 3.3 µM [1] of 93.8%, an inhibition at 10 µM [1] of 83% and an inhibition at 30 µM [1] of 78.7%. It also gave a Ki [2] of 0.0334 µM.

For CCCC(=O)Nc1cccc(C(c2c(O)c3c(oc2=O)CCCCCC3)C2CC2)c1 (stereo not drawn) [Example 209, N-[3-[Cyclopropyl(5,6,7,8,9,10-hexahydro-4-hydroxy-2-oxo-2H-cycloocta[b]pyran-3-yl)methyl]phenyl]-butanamide], the inhibition at 0.37 µM [1] was 43.2%, the inhibition at 1.1 µM [1] was 80% and the inhibition at 3.3 µM [1] was 96%. The inhibition at 10 µM [1] was 104%, the inhibition at 30 µM [1] was 100% and the Ki [2] was 0.0241 µM.

With O=C(Nc1cccc(C(c2c(O)c3c(oc2=O)CCCCCC3)C2CC2)c1)c1ccc(F)cc1 (stereo not drawn) [Example 210, Benzamide, N-[3-[cyclopropyl(5,6,7,8,9,10-hexahydro4-hydroxy-2-oxo-2H-cycloocta[b]pyran-3-yl)methyl]phenyl]-4-fluoro-] the inhibition at 0.123 µM [1] was 19.7%, the inhibition at 0.37 µM [1] was 31.5% and the inhibition at 1.1 µM [1] was 58.1%. For the same compound, the inhibition at 3.3 µM [1] was 77.6%, the inhibition at 10 µM [1] was 88.8% and the inhibition at 30 µM [1] was 97.3%. It also gave a Ki [2] of 0.055 µM.

O=C(Nc1cccc(C(c2c(O)c3c(oc2=O)CCCCCC3)C2CC2)c1)c1ccccc1 (stereo not drawn) [Example 211, Benzamide, N-[3-[cyclopropyl(5,6,7,8,9,10-hexahydro-4-hydroxy-2-oxo-2H-cycloocta[b]pyran-3-yl)methyl]phenyl]] showed an inhibition at 0.37 µM [1] of 37.2%, an inhibition at 1.1 µM [1] of 64.5% and an inhibition at 3.3 µM [1] of 89.6%. The inhibition at 10 µM [1] was 101%, the inhibition at 30 µM [1] was 101% and the Ki [2] was 0.042 µM.

With CC(C)(C)OC(=O)N[C@@H](Cc1c[nH]cn1)C(=O)Nc1cccc(C(c2c(O)c3c(oc2=O)CCCCCC3)C2CC2)c1 (stereo partly drawn) [Example 213, Carbamic acid, [2-[[3-[cyclopropyl(5,6,7,8,9,10-hexahydro-4-hydroxy-2-oxo-2H-cycloocta[b]pyran-3-yl)methyl]phenyl]amino]-1-(S)-(1H-imidazol-4-ylmethyl)-2-oxoethyl]-, 1,1-dimethylethyl ester] the “HIV-1 Protease % Inhib” value ([1]; dose 0.123 uM) was 74.4%, the inhibition at 0.37 µM [1] was 82.2% and the inhibition at 1.1 µM [1] was 94.5%. The inhibition at 3.3 µM [1] was 102%, the inhibition at 10 µM [1] was 109% and the inhibition at 30 µM [1] was 99.3%. It also gave a Ki [2] of 0.0035 µM.
